Values joined by “and” are separate entries in the source; they are usually repeats but may differ in a detail not shown here. Identical values can stand only once.

Experiment [1] has as its system Cricetinae gen. sp. Briefly: Effect on total serum cholesterol in male hamsters at a dose of 100 mg/kg orally administered for 14 days. As to conditions: route oral. It is filed as functional, Cricetulus griseus.
Experiment [2] has as its system Cricetinae gen. sp. In words: Effect on total serum cholesterol in male hamsters at a dose of 50 mg/kg orally administered for 14 days. It is filed as functional, Cricetulus griseus. The following applies: route oral.
In experiment [3] the test system is Cricetinae gen. sp. In words: Effect on total serum cholesterol in male hamsters at a dose of 75 mg/kg orally administered for 14 days. It is filed as functional, Cricetulus griseus. As to conditions: route oral.
The test system of experiment [4] is Cricetinae gen. sp. In words: Percentage lowering of the total serum cholesterol in male hamsters at a dose of 50 mg/dL orally administered for 14 days. It is filed as functional, Cricetulus griseus.
The subject of experiment [5] is Cricetinae gen. sp. Briefly: Percentage lowering of the total serum cholesterol in male hamsters at a dose of 100 […] orally administered for 14 days. It is filed as functional, Cricetulus griseus.
The subject of experiment [6] is Cricetinae gen. sp. Briefly: Percentage lowering of the total serum cholesterol in male hamsters at a dose of 75 mg/dL orally administered for 14 days. It is filed as functional, Cricetulus griseus.
For experiment [7], the system named is Cricetinae gen. sp. Briefly: Effect on total serum cholesterol in male hamsters at a dose of 25 mg/kg orally administered for 14 days. It is filed as functional, Cricetulus griseus. As to conditions: route oral.
For experiment [8], the system named is Cricetinae gen. sp. Briefly: Percentage lowering of the total serum cholesterol in male hamsters at a dose of 25 mg/dL orally administered for 14 days. It is filed as functional, Cricetulus griseus.
The target in experiment [9] is T1, Lanosterol 14-alpha demethylase (Rattus norvegicus, UniProt Q64654).
T1 sequence (Q64654 whole entry): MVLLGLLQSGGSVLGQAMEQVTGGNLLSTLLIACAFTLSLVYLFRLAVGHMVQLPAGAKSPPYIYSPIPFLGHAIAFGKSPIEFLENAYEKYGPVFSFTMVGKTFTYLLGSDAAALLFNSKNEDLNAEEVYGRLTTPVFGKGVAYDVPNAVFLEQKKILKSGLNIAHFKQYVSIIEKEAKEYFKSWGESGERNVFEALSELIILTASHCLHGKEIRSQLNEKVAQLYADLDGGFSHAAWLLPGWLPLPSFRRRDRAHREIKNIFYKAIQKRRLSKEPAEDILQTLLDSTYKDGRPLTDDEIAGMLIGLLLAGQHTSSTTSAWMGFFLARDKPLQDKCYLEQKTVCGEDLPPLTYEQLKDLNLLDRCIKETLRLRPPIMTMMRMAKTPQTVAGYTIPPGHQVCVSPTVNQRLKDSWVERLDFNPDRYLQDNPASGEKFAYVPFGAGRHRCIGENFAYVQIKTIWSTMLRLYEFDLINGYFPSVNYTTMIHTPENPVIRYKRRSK
Briefly: Inhibition of lanosterol 14-alpha-demethylase of rat hepatic microsomes.

The test system of experiment [10] is Cricetinae gen. sp. Briefly: Percentage lowering of the total serum cholesterol in male hamsters at a dose of 200 […] orally administered for 14 days. It is filed as functional, Cricetulus griseus.
Experiment [11] relates to Cricetinae gen. sp. Briefly: Effect on total serum cholesterol in male hamsters at a dose of 200 mg/kg orally administered for 14 days. As to conditions: route oral. It is filed as functional, Cricetulus griseus.
Experiment [12] deals with Cricetinae gen. sp. In words: Percentage increase of the total serum cholesterol in male hamsters at a dose of 25 […] orally administered for 14 days. It is filed as functional, Cricetulus griseus.
The species named for a further experiment is Homo sapiens. Briefly: Inhibition of cellular cholesterol biosynthesis using human fibroblasts in tissue culture. It is filed as functional, organism-based.
The subject of experiment [13] is Cricetinae gen. sp. In words: Effect on total serum cholesterol in male hamsters at a dose of 60 mg/kg orally administered for 3 days. It is filed as functional, Cricetulus griseus. The following applies: route oral.
Experiment [14] concerns Cricetinae gen. sp. Briefly: Percentage lowering of the total serum cholesterol in male hamsters at a dose of 60 […] orally administered for 3 days. It is filed as functional, Cricetulus griseus.
Experiment [15] concerns Cricetinae gen. sp. In words: Percentage lowering of the total serum cholesterol in male hamsters at a dose of 150 […] orally administered for 14 days. It is filed as functional, Cricetulus griseus.
Experiment [16] deals with Cricetinae gen. sp. Briefly: Effect on total serum cholesterol in male hamsters at a dose of 5 mg/kg orally administered for 14 days. It is filed as functional, Cricetulus griseus. As to conditions: route oral.
Experiment [17] relates to Cricetinae gen. sp. Briefly: Effect on total serum cholesterol in male hamsters at a dose of 150 mg/kg orally administered for 14 days. It is filed as functional, Cricetulus griseus. The following applies: route oral.
The subject of experiment [18] is Cricetinae gen. sp. Briefly: Percentage lowering of the total serum cholesterol in male hamsters at a dose of 10 […] orally administered for 14 days. It is filed as functional, Cricetulus griseus.
Experiment [19] deals with Cricetinae gen. sp. Briefly: Effect on total serum cholesterol in male hamsters at a dose of 10 mg/kg orally administered for 14 days. It is filed as functional, Cricetulus griseus. As to conditions: route oral.
For experiment [20], the system named is Cricetinae gen. sp. Briefly: Percentage lowering of the total serum cholesterol in male hamsters at a dose of 5 mg/dL orally administered for 14 days. It is filed as functional, Cricetulus griseus.

On to `Cl.Cl.Cl.Nc1ccc(SC[C@@H]2CO[C@](CCc3ccc(Cl)cc3)(Cn3ccnc3)O2)cc1`, for which the TC worked out at 65.6 mg/dL in the experiment with Cricetinae gen. sp. [1], 88.9 mg/dL in the experiment with Cricetinae gen. sp. [2], 76 mg/dL in the experiment on Cricetinae gen. sp. [3] and 117.4 mg/dL in the experiment with Cricetinae gen. sp. [7]. Moreover, the Lowering in the experiment on Cricetinae gen. sp. [4] was 30%; with Cricetinae gen. sp. [5], 49%; in the experiment on Cricetinae gen. sp. [6], 40%; in the experiment with Cricetinae gen. sp. [8], 8%.
`CC(=O)N1CCN(c2ccc(OCC3COC(Cn4ccnc4)(c4ccc(Cl)cc4Cl)O3)cc2)CC1` (centres undefined) [KETOCONAZOLE]: the TC came to 105 mg/dL in the experiment on Cricetinae gen. sp. [1], 111.4 mg/dL with Cricetinae gen. sp. [2], 83.1 mg/dL in the experiment with Cricetinae gen. sp. [11] and 125.2 mg/dL in the experiment on Cricetinae gen. sp. [7]. The affinity in experiment [9] corresponds to a Ki of 65 nM. The Lowering in the experiment on Cricetinae gen. sp. [10] stood at 30%; with Cricetinae gen. sp. [4] it was 6%; in the experiment on Cricetinae gen. sp. [5] it was 11%. Further, the Increase in the experiment with Cricetinae gen. sp. [12] is on record as 6%. In the experiment listed under Homo sapiens, half-maximal inhibition (IC50) required 37 nM.
Turning to `Nc1ccc(SC[C@H]2CO[C@](CCc3ccc(Cl)cc3)(Cn3ccnc3)O2)cc1`, in the experiment on Cricetinae gen. sp. [13], the TC was found to be 85.1 mg/dL. The same compound gave a Lowering with Cricetinae gen. sp. [14] of 40%.
`CC[C@H](C)C(=O)O[C@H]1C[C@@H](C)C=C2C=C[C@H](C)[C@H](CC[C@@H]3C[C@@H](O)CC(=O)O3)[C@H]21` [LOVASTATIN]: the Lowering was 37% with Cricetinae gen. sp. [15]; 38% in the experiment on Cricetinae gen. sp. [10]; 16% and 19% in the experiment with Cricetinae gen. sp. [4]; 26% with Cricetinae gen. sp. [5]; 6% and 10% in the experiment on Cricetinae gen. sp. [8]; 13% with Cricetinae gen. sp. [18]. The compound further registered a Lowering in the experiment with Cricetinae gen. sp. [20] of 5%. Besides, the TC was 94.9 mg/dL in the experiment on Cricetinae gen. sp. [1]; 99.4 mg/dL and 102 mg/dL with Cricetinae gen. sp. [2] (50 mg/kg); 112.2 mg/dL in the experiment on Cricetinae gen. sp. [16]; 79.5 mg/dL in the experiment on Cricetinae gen. sp. [11]; 111.2 mg/dL and 114 mg/dL in the experiment on Cricetinae gen. sp. [7] (25 mg/kg); 80.3 mg/dL in the experiment on Cricetinae gen. sp. [17]. Further, in the experiment with Cricetinae gen. sp. [19], the TC worked out at 102.8 mg/dL.

Source of the values: ChEMBL document CHEMBL1127068, “Selective inhibition of mammalian lanosterol 14 alpha-demethylase: a possible strategy for cholesterol lowering” (J Med Chem, 1993).
